Ki and EC50 data for two molecules are collected here from PMC4001772 (The Journal of General Physiology, 2014).

By Ki is commonly meant the equilibrium dissociation constant of an inhibitor or competing ligand from its target. A high value points to weaker binding. One may read the EC50 as the midpoint of the concentration-response curve. High values mean a less potent agent, low ones a more potent agent.

Holding throughout (assay): inside-out patch clamp of Xenopus oocytes
What all share (format): cell-based

The target in assay [1] is CFTR (Homo sapiens, UniProt P13569, E1371S).
Assay [2] deals with T1, CFTR (Homo sapiens, UniProt P13569).
Assay [3] concerns the target T1, CFTR. This is another data set of the same source.
The target of assay [4] is CFTR (Homo sapiens, UniProt P13569, K1250A).
Chain of CFTR (Homo sapiens, UniProt P13569, K1250A) (P13569 whole entry K1250A): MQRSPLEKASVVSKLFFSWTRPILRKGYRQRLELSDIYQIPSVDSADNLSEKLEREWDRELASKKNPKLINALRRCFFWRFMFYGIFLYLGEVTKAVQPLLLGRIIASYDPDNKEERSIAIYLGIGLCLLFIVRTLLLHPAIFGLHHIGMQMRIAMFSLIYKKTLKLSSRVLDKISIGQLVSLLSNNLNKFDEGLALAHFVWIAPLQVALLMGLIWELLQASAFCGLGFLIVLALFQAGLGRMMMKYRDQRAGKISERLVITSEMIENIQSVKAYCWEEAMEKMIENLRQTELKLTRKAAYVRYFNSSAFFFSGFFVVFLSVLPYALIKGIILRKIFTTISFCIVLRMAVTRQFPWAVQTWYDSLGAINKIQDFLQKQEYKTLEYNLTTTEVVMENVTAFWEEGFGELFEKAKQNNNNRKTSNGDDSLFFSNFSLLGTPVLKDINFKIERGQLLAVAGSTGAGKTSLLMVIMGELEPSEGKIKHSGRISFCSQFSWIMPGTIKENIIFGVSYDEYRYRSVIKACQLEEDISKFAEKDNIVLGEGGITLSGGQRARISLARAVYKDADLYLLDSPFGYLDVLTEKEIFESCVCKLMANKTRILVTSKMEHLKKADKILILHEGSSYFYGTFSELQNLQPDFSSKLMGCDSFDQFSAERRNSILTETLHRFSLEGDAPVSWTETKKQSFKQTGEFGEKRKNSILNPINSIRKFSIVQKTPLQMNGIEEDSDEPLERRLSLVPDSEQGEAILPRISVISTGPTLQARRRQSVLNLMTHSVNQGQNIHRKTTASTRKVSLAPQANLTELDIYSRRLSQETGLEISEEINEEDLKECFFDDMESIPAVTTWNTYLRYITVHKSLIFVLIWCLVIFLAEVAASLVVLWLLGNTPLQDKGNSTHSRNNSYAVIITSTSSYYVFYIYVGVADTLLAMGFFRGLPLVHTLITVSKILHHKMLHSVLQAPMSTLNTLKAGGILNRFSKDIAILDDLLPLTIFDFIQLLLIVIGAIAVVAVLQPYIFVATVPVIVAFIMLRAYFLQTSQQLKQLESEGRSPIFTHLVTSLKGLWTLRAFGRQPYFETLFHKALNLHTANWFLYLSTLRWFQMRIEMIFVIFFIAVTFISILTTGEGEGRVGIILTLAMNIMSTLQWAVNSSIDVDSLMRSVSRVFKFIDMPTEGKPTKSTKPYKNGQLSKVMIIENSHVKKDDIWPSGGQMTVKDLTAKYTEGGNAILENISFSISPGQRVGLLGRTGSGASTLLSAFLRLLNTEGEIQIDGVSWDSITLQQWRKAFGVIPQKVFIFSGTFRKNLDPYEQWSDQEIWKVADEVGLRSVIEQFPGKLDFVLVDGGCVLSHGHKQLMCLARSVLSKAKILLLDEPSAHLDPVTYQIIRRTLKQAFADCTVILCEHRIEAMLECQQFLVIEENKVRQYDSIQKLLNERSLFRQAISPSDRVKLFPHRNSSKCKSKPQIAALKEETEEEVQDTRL

T1 sequence (P13569 whole entry): as the sequence (P13569 whole entry K1250A) above, with A1250K counted along it
Chain of CFTR (Homo sapiens, UniProt P13569, E1371S) (P13569 whole entry E1371S): as the sequence (P13569 whole entry K1250A) above, with A1250K, E1371S counted along it

As for `O=S(=O)(O)CCCN1CCOCC1` [MOPS], the Ki in assay [1] is approximately 8000 µM; in assay [2], approximately 15000 µM.
For `O=C(O)c1cc([N+](=O)[O-])ccc1NCCCc1ccccc1` [NPPB, 5-nitro-2-(3-phenylpropylamino)benzoate], the results for the EC50 in assay [3] and in assay [4] were approximately 90 µM and approximately 100 µM, respectively. In addition, the Ki in assay [1] was approximately 20 µM.
